Data set [1] is described as follows: Bimatoprost bulk sample elution, normalized to ng per device per day. The following applies: for zero order elution rate: about 90 days. The data set is classed as physicochemical. How it is done: Bulk samples of 1% Bimatoprost having a known diameter of 0.076 cm (0.76 mm) were prepared. The height of each sample was determined from the weight and known diameter of the sample.
The calculated heights ranged from 0.33 cm to 0.42 cm. The exposed surface area on each end of each bulk sample was approximately 0.045 cm2, providing volumes of 0.019 cm3 and 0.015 cm3 for the 0.42 and 0.33 cm samples, respectively. The exposed an exposed surface area of samples calculated from the height and diameter without a drug sheath was approximately 0.1 cm2. Three formulations were evaluated: 1) silicone 4011, 1% Bimatoprost, 0% surfactant; 2) silicone 4011, 1% Bimatoprost, approximately 11% surfactant; and 3) silicone 4011, 1% Bimatoprost, approximately 33% surfactant. The elution data measured for the bulk samples with formulation 1, 2 and 3 were normalized to ng per device per day (ng/device/day) assuming a surface area of the bulk device is 0.1 cm2 and the surface area of the clinical device is 0.00078 cm2 (0.3 mm diameter). […] The normalized elution profile is about 10 ng per day. […] Similar formulations can be used with drug core sheaths and a shaped exposed surface of the core exposed to the tear to increase the exposed surface area as described above and deliver the drug in therapeutic amounts over an extended period.

Data set [2] in a line: In vitro elution study of drug cores (drug in silicone matrix in polyimide tube) in 7.4 pH buffer, HPLC. The following applies: for elution rate: 1 day; for relative elution rate: all time periods to two weeks. It counts as physicochemical. An excerpt: Drug cores as described above have been fabricated with different cross sectional sizes of 0.006 inches, 0.012 inches, and 0.025 inches, and drug concentrations of 5%, 10% and 20% in a silicone matrix. Theses drug cores can be made with a Syringe Tube and Cartridge Assembly, Mixing Latanoprost with Silicone, and Injecting the mixture into a polyimide tube which is cut to desired lengths and sealed. The length of the drug cores were approximately 0.80 to 0.95 mm, which for a diameter of 0.012 inches (0.32 mm) corresponds to total Latanoprost content in the drug cores of approximately 3.5 μg, 7 μg and 14 μg for concentrations of 5%, 10% and 20%, respectively.
Mix Latanoprost with Silicone. Prepare Latanoprost. Latanoprost is provided as a 1% solution in methylacetate. Place the appropriate amount of solution into a dish and using a nitrogen stream, evaporate the solution until only the Latanoprost remains. Place the dish with the Latanoprost oil under vacuum for 30 minutes. Combine Latanoprost with silicone. Prepare three different concentrations of Latanoprost (5%, 10% and 20%) in silicone Nusil 6385 and inject it into tubing of different diameters (0.006 in, 0.012 in and 0.025 inches) to generate 3×3 matrixes. The percent of Latanoprost to silicone is determined by the total weight of the drug matrix. Calculation: Weight of Latanoprost/(weight of Latanoprost+weight of silicone)×100=percent drug.
Inject tube. 1. Insert Cartridge and Polyimide tubes assembly into 1 ml syringe. 2. Add one drop of catalyst, (MED-6385 Curing Agent) in the syringe. 3. Force excess catalyst out of the polyimide tube with clean air. 4. Fill syringe with silicone drug matrix. 5, Inject tube with drug matrix until the tube is filled or the syringe plunger becomes too difficult to push. 6. Close off the distal end of the polyimide tube and maintain pressure until the silicone begins to solidify. 7. Allow to cure at room temperature for 12 hours. 8. Place under vacuum for 30 minutes. 9. Place tube in right size trim fixture (prepared in house to hold different size tubing) and cut drug inserts to length (0.80-0.95 mm).
Testing. Elution study (in vitro). 1. Place 10 plugs of same size and same concentration per centrifuge tube and add 1.5 ml of 7.4 pH buffer solution to it. 2. Change the solvent with fresh 7.4 pH buffer after appropriate time. 3. Take HPLC of the elutant at 210 nm with PDA detector 2996 using Sunfire C18, 3 mm×10 mm column (Waters Corporation, Milford, Mass.). Acetonitrile and water mixture is used for gradient elution. Calibration was done in house before and after each analysis, using in-house standards with precisely weighed concentration of Latanoprost. 4. Calculate the amount of drug release per day per device for different size tubings having different concentrations of Latanoprost. 5. Plot elution rate vs area and concentration for day 1 and day 14.

The conditions of data set [3]: cited from earlier work.
The conditions of data set [4]: topical drop to the eye; cited from earlier work.
Where [5] appears, read: 20% bimatoprost in NuSil 6385, 0% salt.
The mark [6] stands for this setting: 20% bimatoprost in NuSil 6385, 20% salt.

For `CCNC(=O)CCC/C=C\C[C@@H]1[C@@H](/C=C/[C@@H](O)CCc2ccccc2)[C@H](O)C[C@@H]1O` [Bimatoprost], in data set [1] (from about ten days to about 90 days, each of the formulations 1-3), the release kinetics entry is “approximately zero order release kinetics”. Also, the “zero order elution rate” value is listed as “about 60 ng per day” in data set [1] (scaled to 0.76 mm exposed diameter (0.0045 cm2)) and “about 100 ng per day” in data set [1] (scaled to exposed surface area about 0.0078 cm2). For the same compound, the normalized elution profile entry in data set [1] (silicone 4011, 1% Bimatoprost, 0/11/33% surfactant bulk samples, normalized to 0.3 mm exposed surface diameter (0.00078 cm2)) is reported as “about 10 ng per day”. The elution rate result in data set [2] (setting [5]) is recorded as “about 100 ng per day”; in data set [2] (20% bimatoprost in NuSil 6385, 10% salt), 400 ng per day; in data set [2] (setting [6]) it was “about 750 ng/day”. Also, the relative elution rate result is reported as “lowest elution rate” in data set [2] (setting [5]) and “highest elution rate” in data set [2] (setting [6]).

As for `O=C1OC2(c3ccc(O)cc3Oc3cc(O)ccc32)c2ccccc21` [Fluorescein], the “solubility in water” value in data set [3] was “soluble in water”.

With `CC(C)(C)NC[C@H](O)COc1nsnc1N1CCOCC1` [Timolol], in data set [4], the bioavailability is reported as 30-50%.

Values taken from patent US8628792B2, “Drug cores for sustained release of therapeutic agents” (Mati Therapeutics, Inc., priority 2007, dated 2014).
